Each block holds one molecule with its values, some of them ahead of it.
How the values were obtained:
A2780 = assay: SRB cell proliferation assay; format: cell-based; conditions: Table 3, AAD series, human epithelial ovarian cancer
Experimental: (§1) The human ovarian cancer cell lines OVCAR-3, SKOV-3 and A2780 and primary cells human umbilical vein endothelial cells (HUVEC) and all other cell lines were obtained from the American Type Culture Collection (ATCC) and maintained according to their instructions. Astrocytes and glioma cell lines were kindly gifted by Dr. Kerry McDonald from Lowy Cancer Research Centre, University of New South Wales, Australia.
(§2) Cell proliferation was assessed using the sulforhodamine B (SRB) assay. Cells seeded in 96-well plate (2,000-3,000 cell/well) were treated with MPL (0, 1, 5, 10, 25, 50 and 100 μmol/L) for 72 h. Cells were then fixed, washed and stained with 100 μl of 0.4% (w/v) SRB dissolved in 1% acetic acid. Unbound dye was removed by five washes with 1% acetic acid before air drying. Bound SRB was solubilized with 100 μl of 10 mM Tris base (pH 10.5) and the absorbance read at 570 nm. Exactly the same procedure was used to assess MPL-SO2. Both agents were dissolved in ethanol and diluted with media to give the final concentrations required for cell culture assays.

CHO = assay: SRB cell proliferation assay; format: cell-based; conditions: Cricetulus griseus, Table 3, AAD series, Chinese hamster ovarian cells
Experimental: as §1, §2

OVCAR-3 = assay: SRB cell proliferation assay; format: cell-based; conditions: Table 3, AAD series, human epithelial ovarian cancer
Experimental: as §1, §2

HUVEC = assay: SRB cell proliferation assay; format: cell-based; conditions: Homo sapiens, Table 3, AAD series, human umbilical vein endothelial cells
Experimental: as §1, §2

SW-876 = assay: SRB cell proliferation assay; format: cell-based; conditions: SW-876, liposarcoma
Experimental: as §1, §2

HCT-116 = assay: SRB cell proliferation assay; format: cell-based; conditions: Homo sapiens; HCT-116, colorectal cancer
Experimental: as §1, §2

LN-18 = assay: SRB cell proliferation assay; format: cell-based; conditions: Homo sapiens; LN-18, glioma
Experimental: as §1, §2

HT-29 = assay: SRB cell proliferation assay; format: cell-based; conditions: Homo sapiens; HT-29, colorectal cancer
Experimental: as §1, §2

MCF-7 = assay: SRB cell proliferation assay; format: cell-based; conditions: Homo sapiens, MCF7, MCF-7, breast cancer, 72 h
Experimental: as §1, §2

T98G = assay: SRB cell proliferation assay; format: cell-based; conditions: Homo sapiens, glioma
Experimental: as §1, §2

HT-29 5m11 = assay: SRB cell proliferation assay; format: cell-based; conditions: Homo sapiens; HT-29 5m11, colorectal cancer
Experimental: as §1, §2

HaCat = assay: SRB cell proliferation assay; format: cell-based; conditions: Homo sapiens, keratinocyte
Experimental: as §1, §2

OVCAR-3 or A2780 cells [1] = assay: Colony formation assay; format: cell-based, human; conditions: higher concentrations of MPL; 72 h exposure, 2 weeks drug free
Experimental: For colony formation assay, 5×10^6 cells, such as OVCAR-3 or A2780 cells, were plated in 100 mm Petri dishes and allowed to attach overnight. Media were aspirated off and exponentially growing cells were incubated with various concentrations of MPL for 72 h. At this point, the medium was aspirated, the dishes were washed with PBS, and drug free medium was added to each plate. Media were changed twice weekly for 3 weeks. Following this, plates were gently washed with PBS and cells were fixed with 100% ethanol and stained with a 0.5% solution of filtered crystal violet. Colonies consisting of more than 50 cells were counted under an inverted microscope.
To determine the effect of MPL on cell integrity and capacity to rid itself from drug effects following drug exposure and withdrawal, cells were incubated with MPL (0, 5, 10, 25 μM) for 72 h, washed with PBS, transferred to agar plates, cultured with growth medium and incubated under standard conditions for 2 weeks. Cells were then fixed with 100% methanol and stained with 1% crystal violet. Colonies (Cluster of cells greater than 50) were counted under microscope (magnification ×5). Number of colonies counted for different experimental groups is expressed as percentage of the control (FIG. 14).

nicotinic receptors = assay: MPL antiproliferative effect after pre-treatment with nicotinic agonists or antagonists; format: cell-based; conditions: 30 min pre-treatment, MPL 5 μM, 72 h
Experimental: Cells were pre-treated (30 min) with increasing concentrations of nicotine, carbachol or the receptor antagonists, atropine, mecamylamine, tubocurarine, and α-bungarotoxin. MPL (5 μM) was added and left in the cell culture incubator for 72 h. Each drug concentration was tested in quadruplicate and each experiment was repeated twice. Combine values (mean±SEM) are presented as % control.

OVCAR-3 tumors = assay: s.c. OVCAR-3 xenografts in nude mice; format: in vivo; conditions: for s.c. tumor growth: i.p., three times weekly
Experimental: Female nude mice (6 weeks old) were purchased from Biological Resources (University of New South Wales). Institutional animal ethics approvals covered procedures carried out on mice. Briefly, 2.5×10^6 log-phase growing OVCAR-3 cells were injected s.c. into the left flank of each mouse. Animals were weighed once weekly while their tumor volumes were determined twice weekly. Tumor growth was monitored by caliper measurements of orthogonal diameters, and the estimated tumor volume was calculated based on the formula […], where width is the shorter of the two orthogonal measurements. Based on institutional ethics approval, mice were euthanized before the tumor volume reached 500 mm3. Treatment was initiated on day 8 post tumor cell inoculation when mice were randomized and assigned to one of MPL or vehicle treated groups (5-6 mice per group). MPL was suspended in […] methylcellulose (0.5% w/v HPMC), sterilized by sonnicator and administered every other day either intraperitoneally (i.p) or orally as gavage (100 μL).
In the first pilot trial, the drug was administered i.p. at 2.5 or 25 mg/kg body weight, three times weekly for 2 weeks.
Following the outcome, in the next set of animals, the dose was increased to 25 and 50 mg/kg, three times weekly.
In the last (third) pilot study, mice were treated orally. The doses administered were 50 and 100 mg/kg three times weekly. In all these trials, mice in control groups received similar volume of the vehicle (0.5% HPMC). Tumor histology/immunohistochemistry was performed on formalin fixed tumor slices according to standard procedures.

U87 glioma cells = assay: Autophagy (vacuole formation, LC3-II); format: cell-based; conditions: chemo-resistant U87 glioma cells
cancer cell lines = assay: SRB cell proliferation assay, comparison across cell lines; format: cell-based
Experimental: as §2

[2] = tested on: cdk2, cdk4, cyclins A, and E; assay: Western blot of cell cycle regulatory proteins; format: cell-based; conditions: MPL 0, 5, 10, 25 μM
Experimental: Protein expression in cells was determined using western blot analysis. After treatment with the indicated concentrations of MPL, cell lysates were prepared and probed with antibodies for cdk2, cdk4, cyclin A, cyclin E, PARP-1 (1:1000 dilutions; Cell Signalling Technology), and p53 (1:200 dilutions; Santa Cruz Biotechnology).

OVCAR-3 or A2780 cells [3] = assay: Cell cycle analysis by flow cytometry; format: cell-based, human; conditions: 25 μM MPL
Experimental: The effect of MPL on the cell cycle was determined using standard flow cytometry analysis protocols and procedures. Briefly, 0.7×10^6 million cells seeded in 25 cm^3 flasks and allowed to adhere overnight were treated with MPL for 24 or 48 h. Cells were collected with trypsinization and pooled with the cells floating in the medium. The cell suspensions were centrifuged, washed with PBS and fixed with methanol. Cells were then washed, resuspended in propodium iodide and ribonuclease A in PBS for 30 min at room temperature and analyzed by flow cytometry (Becton Dickinson FACSort).

cancer cell-lines = assay: Thymidine incorporation; format: cell-based
[4] = mammals; cited from earlier work
OVCAR-3 or A2780 cells [5] = assay: Cellular ATP levels and ADP/ATP ratio; format: cell-based, human

- IC50 (A2780): 33.5 ± 8.5 µM
- IC50 (OVCAR-3): 23.9 ± 1.45 µM
Compound: CC(C#N)(COc1ccccc1Cl)NC(=O)c1ccc(C(F)(F)F)cc1 (centres unmarked) [AAD 450]
- IC50 (CHO): 45.9 µM
- IC50 (HUVEC): 96.5 µM

- IC50 (A2780): 28 ± 4.5 µM
- IC50 (OVCAR-3): 20.5 ± 0.5 µM
Compound: CC(C#N)(COc1cc(Cl)ccc1Cl)NC(=O)c1ccc(OC(F)(F)F)cc1 (centres unmarked) [AAD 1154]
- IC50 (CHO): 34.8 µM
- IC50 (HUVEC): 61.1 µM

Compound: C[C@](C#N)(COc1cc(C#N)ccc1C(F)(F)F)NC(=O)c1ccc(SC(F)(F)F)cc1 [MPL, N-[(1S)-1-cyano-2-(5-cyano-2-trifluoromethyl-phenoxy)-1-methyl-ethyl]-4-trifluoromethylsulfanyl-benzamide]
- IC50 (SW-876): 14.6 µM
- IC50 (HCT-116): 10.5 ± 0.02 µM
- IC50 (LN-18): 9.38 ± 0.79 µM
- IC50 (HT-29): 5.86 ± 0.2 µM
- IC50 (MCF-7): 15.4 ± 1.1 µM
- IC50 (T98G): 18.2 ± 0.61 µM
- IC50 (HT-29 5m11): 10.4 µM
- IC50 (HaCat): 21.2 ± 3.2 µM
- clonogenic ability (OVCAR-3 or A2780 cells [1]): almost complete loss of clonogenic ability
- MPL-induced inhibition of proliferation after pre-treatment with nicotinic agonists or antagonists (nicotinic receptors): neither positively nor negatively affected
- tumor tissue histology (OVCAR-3 tumors; MPL treated tumors from the in vivo trials): extensive necrosis
- s.c. tumor growth (OVCAR-3 tumors; first trial, 25 mg/kg, female nude mice): particularly effective
- s.c. tumor growth (OVCAR-3 tumors; second trial, 50 mg/kg compared with 25 mg/kg): more effective in retarding tumor growth
- expression of LC3-II (autophagy) (U87 glioma cells): increased expression of LC3-II in a concentration-dependent manner
- sensitivity of chemo-resistant cell lines to antiproliferative action (cancer cell lines; ovarian chemo-resistant, glioma temozolomide resistant, breast cancer tamoxifen resistant cells): sensitive
- expression of cell cycle regulatory proteins [2]: lower levels of cdk2, cdk4, cyclins A, and E
- percentage of cells in G2-M phase (OVCAR-3 or A2780 cells [3]): more than three times higher
- thymidine incorporation into the cell (DNA synthesis) (cancer cell-lines): Blocks thymidine incorporation
- dosage well tolerated [4]: 1000 mg of MPL per kg of body weight per 24 hours
- cellular ratio of ADP/ATP (OVCAR-3 or A2780 cells [5]): reduces the cellular ratio of ADP/ATP

Compound: C[C@](C#N)(COc1cc(C#N)ccc1C(F)(F)F)NC(=O)c1ccc(S(=O)(=O)C(F)(F)F)cc1 [MPL-SO2, monepantel sulphone]
- potency compared with MPL (cancer cell lines; SRB proliferation assay): as potent as MPL

Source: patent publication US20160220527A1, “KINASE INHIBITORS FOR THE TREATMENT OF CANCER” (Pitney Pharmaceuticals Pty Limited, priority 2012, published 2016)
